Test results from article PMC7756341, “Liposomal FRET Assay Identifies Potent Drug‐Like Inhibitors of the Ceramide Transport Protein (CERT)” (Chemistry (Weinheim an Der Bergstrasse, Germany), 2020).

Molecular target: T1, CERT (Homo sapiens, UniProt Q9Y5P4)
T1 construct: made in house; host or cells: E. coli BL21 (DE3), pET-28a(+)
T1 sequence (Q9Y5P4 1-598 isoform Q9Y5P4-2): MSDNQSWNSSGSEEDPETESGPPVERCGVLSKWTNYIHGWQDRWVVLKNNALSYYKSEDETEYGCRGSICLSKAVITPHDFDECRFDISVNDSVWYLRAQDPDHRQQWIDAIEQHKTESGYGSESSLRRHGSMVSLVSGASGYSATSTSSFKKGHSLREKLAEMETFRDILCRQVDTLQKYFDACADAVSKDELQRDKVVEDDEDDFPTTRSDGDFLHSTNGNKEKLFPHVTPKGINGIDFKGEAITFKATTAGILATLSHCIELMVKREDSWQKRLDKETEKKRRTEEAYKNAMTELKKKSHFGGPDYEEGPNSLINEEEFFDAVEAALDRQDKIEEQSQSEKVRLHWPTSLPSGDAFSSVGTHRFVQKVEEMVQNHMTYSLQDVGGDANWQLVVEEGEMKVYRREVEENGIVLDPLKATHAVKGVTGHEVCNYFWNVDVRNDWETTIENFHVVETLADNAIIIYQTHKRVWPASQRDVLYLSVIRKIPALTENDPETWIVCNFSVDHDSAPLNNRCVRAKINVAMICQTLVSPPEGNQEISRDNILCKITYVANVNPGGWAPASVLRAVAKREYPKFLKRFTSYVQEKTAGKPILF
Assay: Liposomal FRET CERT transfer assay (NBD-Cer/NR-Cer), 96-well
Type: biochemical
Conditions: dose-response
Description: 2. Assessment of CERT-transfer Activity
2.1 Reagents and materials
Egg phosphatidylcholine (PC) and egg phosphatidylethanolamine (PE) were purchased from Sigma. Fluorescence (nitrobenzoxadiazole (NBD), 7-Methoxycumarin-3-carboxylat (MCC), 9-Diethylamino-5-oxo-5H-benzo[a]phenoxazin-2-yl (NR)) labeled-ceramide, were chemically synthesized (section 5). (1R,3S) and (1R, 3R) -N-(3Hydroxy-1-hydroxymethyl-3-phenylpropyl)- dodecamide (HPA-12) were synthesized as previously described.
Two donor and acceptor liposomes were prepared one acts as donor liposome (NBD-Cer or MCC-Cer) and the other as acceptor liposome (NR-Cer or NBD-Cer). The donor and acceptor liposomes were mixed in proper percentage for establishing two fluorescence resonance energy transfer (FRET) systems (MCC/NBD-ceramide system, or NBD/ NR-ceramide system). The stock solutions of the phospholipids and the fluorescently-labeled ceramide were prepared by dissolving in a mixture of methanol:chloroform (1:1). The liposomes were prepared by mixing […] phosphatidylcholine, 333 µmol phosphatidylethanolamine, and […] fluorescently-labeled ceramide (4:1:1 molar ratio) in siliconized Eppendorf tubes. The mixture was dried under argon stream to yield a waxy lipid film. The obtained waxy residue was hydrated with Tris.HCl buffer (1mL, 2 mM, pH 7.4) to a final concentration of 2 mM and the resulting mixture was vortexed for 1 min. The lipid mixture was subjected to 6 freeze-thawing cycles with liquid nitrogen and shaking incubator at 37 °C. Afterwards, the lipid suspension was sonicated with a Cup-Horn sonicator for 20 sec, followed by vigorous shaking on vortex for 1 min. Finally, the lipid mixture was extruded with a mini extruder (Avanti polar lipids) by forcing the suspension through two polycarbonate filters with 100 nm pore size for 13 times to afford a solution of liposome type.
2.4 Development of high throughput screening CERT-assay (96-well plate format) The assay was performed in non-binding clear-bottom 96-well microplate (Greiner Bio-One). […] The plate was placed in the microplate reader (LABTECH) at 30°C with shaking. The fluorescence was measured from the bottom over 1h (number of cycles 35, delay 70 sec) with excitation filter 485 nm and emission filter 640 nm (for NBD-Cer/NR-ceramide FRET system) or excitation filter 347 nm and emission filter 536 nm (for Coumarin (MMC-Cer), NBD-ceramide (NBD-Cer) FRET system). The transfer efficiency was calculated using the formula: Ix = I0(À1-X)/I(À2-Y), where À1 is the average of the florescence of the control of liposome mixture in Tris.HCl buffer, X is the average of the fluorescence of the buffer alone, À2 is the fluorescence average of the assay mixture, Y is the fluorescence average of the CERT aliquot with […]

Structure (SMILES) | activity in the transfer assay
CCCC(=O)OCOC(=O)C1=C(C)NC(C)=C(C(=O)OC)C1c1cccc(Cl)c1Cl (stereo not shown) [6B11, Clevidipine butyrate] | high activity
O=C(NC1CCN(CCCCC2(C(=O)NCC(F)(F)F)c3ccccc3-c3ccccc32)CC1)c1ccccc1-c1ccc(C(F)(F)F)cc1 [8E8, lomitapide] | high activity
CC1=NN(c2ccc(C)c(C)c2)C(=O)/C1=N\Nc1cccc(-c2cccc(C(=O)O)c2)c1O [17C9, Eltrombopag] | weak dose‐response
Cc1cc(C2=NOC(c3cc(Cl)cc(Cl)c3)(C(F)(F)F)C2)ccc1C(=O)NCC(=O)NCC(F)(F)F (stereo not shown) [20D5, Fluralaner] | high activity
